Experimental data published in patent US12497396B2, “Nitrogen-containing heterocyclic derivatives, method therefor and application therefor as inhibitors of KRAS G12C for the treatment of cancers” (SHANGHAI HANSOH BIOMEDICAL CO., LTD., priority 2019, dated 2025).

Columns and labels:
[1] = test system: NCI-H358 cells (KRAS G12C mutant cell line); experiment: Inhibition of NCI-H358 cell proliferation (CellTiter-Glo, 72 h); type: cell-based, human; conditions: Homo sapiens
Method in brief: (§1)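 Cells were seeded overnight at 37 °C, 5% CO2, then exposed to serially diluted compound (DMSO/medium) alongside a solvent control for 72 h. Viability was read by CellTiter-Glo luminescence, and IC50 was derived by nonlinear regression of inhibition rate against concentration.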

[2] = target: T1, human KRAS G12C protein (Homo sapiens, UniProt P01116, G12C); experiment: Thermal shift: melting temperature of KRAS G12C protein; type: binding
T1 construct: purchased Beijing SinoBiological Co., Ltd. 12259-H07E2
Method in brief: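 5.37 μM (final) human KRAS G12C in […] HEPES pH 7.5, 1 mM DTT, 150 mM NaCl, 5×SYPRO Orange, incubated 1 h at room temperature in the dark. Melt curve run from 25 to 95° C at 0.03° C/s. ΔTm = treated Tm minus DMSO control Tm.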

[3] = test system: Mia PaCa-2 cells (KRAS G12C mutant cell line); experiment: Inhibition of Mia PaCa-2 cell proliferation (CellTiter-Glo, 72 h); type: cell-based, human; conditions: Homo sapiens
Method in brief: as §1

[4] = test system: phosphorylated ERK in KRAS G12C mutant cells Mia PaCa-2; experiment: Inhibition of phosphorylated ERK level in Mia PaCa-2 cells (LANCE Ultra); type: cell-based; conditions: Homo sapiens, 2 hours, read-out: Mia PaCa-2 pERK IC50
Excerpt: As a preferred embodiment of the present disclosure, the method for detecting the inhibitory activity of phosphorylated ERK level is as follows: through cell culture, adding different concentrations of compound solutions to the cultured cells, continuing the culture for a period of time, lysing the cells, followed by centrifugation and […]; • further, the method of cell culture is: adjusting the cells to a suitable cell concentration with a complete medium, preferably the cell concentration is 1×10^6/mL, and spreading the cell suspension on a well plate for culture.
When Mia PaCa-2 cells were cultured to the appropriate fusion level, Mia PaCa-2 cells were collected, and the cell density was adjusted to 1×10^6/mL using complete culture medium, the cell suspension was spread on a 96-well plate, 50 μL per well, and placed adherent to the wall in a 37° C., 5% CO2 incubator overnight, compound solutions with different concentrations were prepared using DMSO and complete culture medium, a solvent control was set, the compound solution was added to a 96-well plate, 25 μL per well, and placed in a 37° C., 5% CO2 incubator for 2 hours of continuous culture, the supernatant was discarded from the cell culture plate, 50 μL of lysis solution was added to each well, and lysing was performed for 30 minutes by shaking at room temperature, then the mixture was centrifuged at 1000 rpm for 1 minute, 15 μL of supernatant was transferred to 384 well plate, 5 μL of detection mixture (Eu-labeled anti-ERK1/2 (T202-Y204) antibody with final concentration of 0.5 nM and ULight labeled anti-ERK1/2 antibody with final concentration of 5 nM) was added to each well, centrifuged at 1000 rpm for 1 minute and mixed uniformly, the reaction was carried out overnight at room temperature, the plate was read with BioTek Synergy H1, and the signal values was detected at 620 nm and 665 nm emission wavelengths by time-resolved fluorescence program.
The ratio of the signal values at 665 nm and 620 nm emission wavelength were calculated, and the ratio was used to calculate the inhibition rate, the concentration and the inhibition rate were fitted to a nonlinear regression curve using Graphpad Prism software, then the IC50 value was obtained.

IC50 [1]: 23 nM
Tm (° C.) ([2]; KRAS G12C protein 5.37 μM with compound 10 μM, 1 hour incubation): 64.4 °C
ΔTm at 10 µM ([2]; compound 10 μM, Tm minus Tm of DMSO solvent control): 15.8 °C
IC50 [3]: 30 nM
IC50 [4]: 30 nM
Structure (SMILES): C=CC(=O)N1CCN(c2nc(=O)n(-c3c(SC)ccnc3C(C)C)c3nc(-c4c(N)cccc4F)c(F)cc23)[C@@H](C)C1 [Embodiment 134, 4-((S)-4-acryloyl-2-methylpiperazin-1-yl)-7-(2-amino-6-fluorophenyl)-6-fluoro-1-(2-isopropyl-4-(methylthio)pyridin-3-yl) pyrido [2,3-d] pyrimidin-2 (1H)-one]
